Legend:
CYP3A5 = biological target: T1, CYP3A5 (Homo sapiens, UniProt P20815); assay: Monooxygenases activity screening, CYP3A5; format: in vitro ADME; set-up: key: +, detected; –: −, not detected; details: 25 μM 4F-MDMB-BINACA, 50 pmol/ml enzyme, 30 min, 37°C, duplicate
T1 construct: purchased Corning; host or cells: baculovirus-transfected insect cell microsomes (Supersomes)
Description: (§1) According to an established protocol (Wagmann et al., [2016]), the final volume per reaction tube was 50 μl with a final 4F-MDMB-BINACA concentration of 25 μM and enzyme concentrations of 50 pmol/ml for CYP1A2, CYP2A6, CYP2B6, CYP2C8, CYP2C9, CYP2C19, CYP2D6, CYP2E1, CYP3A4, and CYP3A5, respectively, or 0.25 mg protein/ml for FMO3. Furthermore, the reaction mixture contained 90 mM phosphate buffer (pH 7.4), superoxide dismutase (200 U/ml), isocitrate (5 mM), MgCl2 (5 mM), isocitrate dehydrogenase (0.5 U/ml), and NADP^+ (1.2 mM). The phosphate buffer was replaced with Tris buffer (90 mM) for incubations with CYP2A6 and CYP2C9 according to the manufacturer's recommendation. All incubations were performed at 37°C for 30 min and terminated by adding 50 μl of ice-cold acetonitrile. Afterwards, the mixtures were centrifuged at 18,407 × g for 5 min, 70 μl of the supernatants was transferred into autosampler vials, and 1 μl was injected onto the LC-HRMS/MS system. Positive control incubations were performed with pHLM (1 mg microsomal protein/ml), and negative controls without enzyme were prepared to identify non-metabolically formed compounds. All incubations were done in duplicate.

HepaRG cells = assay: Incubations with HepaRG cells, metabolite identification by LC-HRMS/MS; format: in vitro ADME, human; details: for Absolute peak area, HepaRG [25 μM]: 25 μM parent NPS; for Absolute peak area, HepaRG [25 μM] / Absolute peak area, HepaRG [250 μM]: cell culture medium, one replicate of n = 3, n.d. = not detected; for Absolute peak area, HepaRG [250 μM]: 250 μM parent NPS
CYP2A6 = biological target: T2, CYP2A6 (Homo sapiens, UniProt P11509); assay: Monooxygenases activity screening, CYP2A6; format: in vitro ADME; set-up: key: +, detected; –: −, not detected; details: 25 μM 4F-MDMB-BINACA, 50 pmol/ml enzyme, 30 min, 37°C, duplicate
T2 construct: purchased Corning; host or cells: baculovirus-transfected insect cell microsomes (Supersomes)
T2 sequence (P11509 1-494): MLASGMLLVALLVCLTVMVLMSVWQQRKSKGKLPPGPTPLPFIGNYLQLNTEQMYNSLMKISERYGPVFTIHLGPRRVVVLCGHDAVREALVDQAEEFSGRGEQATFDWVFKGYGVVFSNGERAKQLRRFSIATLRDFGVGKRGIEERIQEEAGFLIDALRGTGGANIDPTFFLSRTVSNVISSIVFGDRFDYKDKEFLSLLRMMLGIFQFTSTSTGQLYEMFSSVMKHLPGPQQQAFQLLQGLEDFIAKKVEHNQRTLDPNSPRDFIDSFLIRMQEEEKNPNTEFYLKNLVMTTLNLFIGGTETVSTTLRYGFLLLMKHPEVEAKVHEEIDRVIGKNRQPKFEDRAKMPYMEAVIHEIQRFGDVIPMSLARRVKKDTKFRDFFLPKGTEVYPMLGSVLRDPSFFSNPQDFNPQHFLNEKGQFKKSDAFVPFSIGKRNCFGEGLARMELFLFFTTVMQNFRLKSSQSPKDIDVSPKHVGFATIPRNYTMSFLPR
Description: as §1

CYP2B6 = biological target: T3, CYP2B6 (Homo sapiens, UniProt P20813); assay: Monooxygenases activity screening, CYP2B6; format: in vitro ADME; set-up: key: +, detected; –: −, not detected; details: 25 μM 4F-MDMB-BINACA, 50 pmol/ml enzyme, 30 min, 37°C, duplicate
T3 construct: purchased Corning; host or cells: baculovirus-transfected insect cell microsomes (Supersomes)
T3 sequence (P20813 1-491): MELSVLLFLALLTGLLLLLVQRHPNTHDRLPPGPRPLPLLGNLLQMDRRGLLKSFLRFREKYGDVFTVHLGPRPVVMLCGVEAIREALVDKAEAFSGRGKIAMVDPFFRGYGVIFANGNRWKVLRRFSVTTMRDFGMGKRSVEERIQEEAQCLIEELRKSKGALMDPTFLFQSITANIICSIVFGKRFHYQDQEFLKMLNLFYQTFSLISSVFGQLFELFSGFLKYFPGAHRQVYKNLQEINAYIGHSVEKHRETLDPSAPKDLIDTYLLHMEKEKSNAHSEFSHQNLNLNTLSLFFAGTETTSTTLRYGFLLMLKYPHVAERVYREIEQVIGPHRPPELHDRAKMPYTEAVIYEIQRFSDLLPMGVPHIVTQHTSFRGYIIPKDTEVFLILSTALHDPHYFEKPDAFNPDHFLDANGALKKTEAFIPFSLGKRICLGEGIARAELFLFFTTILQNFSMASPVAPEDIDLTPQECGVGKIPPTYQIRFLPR
Description: as §1

CYP2D6 = biological target: T4, CYP2D6 (Homo sapiens, UniProt P10635); assay: Monooxygenases activity screening, CYP2D6; format: in vitro ADME; set-up: key: +, detected; –: −, not detected; details: 25 μM 4F-MDMB-BINACA, 50 pmol/ml enzyme, 30 min, 37°C, duplicate
T4 construct: purchased Corning; host or cells: baculovirus-transfected insect cell microsomes (Supersomes)
T4 sequence (P10635 whole entry): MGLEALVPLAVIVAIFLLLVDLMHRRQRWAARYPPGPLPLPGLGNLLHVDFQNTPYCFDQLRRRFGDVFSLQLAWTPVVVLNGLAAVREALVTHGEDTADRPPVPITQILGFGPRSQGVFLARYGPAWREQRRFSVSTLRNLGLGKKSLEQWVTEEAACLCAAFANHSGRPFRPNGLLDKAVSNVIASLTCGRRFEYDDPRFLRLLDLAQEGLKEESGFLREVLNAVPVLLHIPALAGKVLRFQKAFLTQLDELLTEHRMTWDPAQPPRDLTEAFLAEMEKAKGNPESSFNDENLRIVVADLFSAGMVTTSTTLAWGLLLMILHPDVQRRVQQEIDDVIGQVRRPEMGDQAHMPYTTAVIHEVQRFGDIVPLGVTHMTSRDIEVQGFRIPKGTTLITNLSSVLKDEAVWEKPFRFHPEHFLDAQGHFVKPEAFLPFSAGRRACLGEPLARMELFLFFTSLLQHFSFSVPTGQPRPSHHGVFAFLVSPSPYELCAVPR
Description: as §1

CYP2E1 = biological target: T5, CYP2E1 (Homo sapiens, UniProt P05181); assay: Monooxygenases activity screening, CYP2E1; format: in vitro ADME; set-up: key: +, detected; –: −, not detected; details: 25 μM 4F-MDMB-BINACA, 50 pmol/ml enzyme, 30 min, 37°C, duplicate
T5 construct: purchased Corning; host or cells: baculovirus-transfected insect cell microsomes (Supersomes)
T5 sequence (P05181 whole entry): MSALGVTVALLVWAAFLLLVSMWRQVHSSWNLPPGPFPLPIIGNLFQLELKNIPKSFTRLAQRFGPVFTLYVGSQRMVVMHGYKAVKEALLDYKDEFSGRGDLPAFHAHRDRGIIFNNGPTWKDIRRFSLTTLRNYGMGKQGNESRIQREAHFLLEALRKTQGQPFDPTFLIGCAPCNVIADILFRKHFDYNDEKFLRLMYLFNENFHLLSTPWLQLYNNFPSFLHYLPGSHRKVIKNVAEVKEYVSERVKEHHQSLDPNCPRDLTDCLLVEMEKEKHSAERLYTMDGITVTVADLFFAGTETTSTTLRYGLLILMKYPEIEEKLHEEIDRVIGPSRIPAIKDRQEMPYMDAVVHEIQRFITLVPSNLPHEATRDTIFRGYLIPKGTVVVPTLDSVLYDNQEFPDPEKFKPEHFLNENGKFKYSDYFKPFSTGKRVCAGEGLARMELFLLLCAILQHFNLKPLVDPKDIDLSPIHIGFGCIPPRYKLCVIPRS
Description: as §1

CYP2C9 = biological target: T6, CYP2C9 (Homo sapiens, UniProt P11712); assay: Monooxygenases activity screening, CYP2C9; format: in vitro ADME; set-up: key: +, detected; –: −, not detected; details: 25 μM 4F-MDMB-BINACA, 50 pmol/ml enzyme, 30 min, 37°C, duplicate
T6 construct: purchased Corning; host or cells: baculovirus-transfected insect cell microsomes (Supersomes)
T6 sequence (P11712 whole entry): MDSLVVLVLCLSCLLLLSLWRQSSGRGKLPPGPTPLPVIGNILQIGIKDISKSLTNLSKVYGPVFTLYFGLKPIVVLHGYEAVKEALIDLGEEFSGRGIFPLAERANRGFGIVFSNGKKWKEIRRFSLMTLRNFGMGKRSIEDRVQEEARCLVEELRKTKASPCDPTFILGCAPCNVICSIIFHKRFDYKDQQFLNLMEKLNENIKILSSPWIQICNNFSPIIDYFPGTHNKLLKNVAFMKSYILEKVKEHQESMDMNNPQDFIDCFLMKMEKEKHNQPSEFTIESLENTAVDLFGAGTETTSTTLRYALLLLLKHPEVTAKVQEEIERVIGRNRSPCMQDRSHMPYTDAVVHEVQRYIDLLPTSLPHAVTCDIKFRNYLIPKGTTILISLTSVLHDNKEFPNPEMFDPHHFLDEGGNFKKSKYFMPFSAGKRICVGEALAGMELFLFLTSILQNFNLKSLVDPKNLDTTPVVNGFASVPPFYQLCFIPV
Description: as §1

zebrafish larvae = assay: Zebrafish larvae exposure, metabolite identification by LC-HRMS/MS; details: for Absolute peak area, Zebrafish larvae [25 μM]: 25 μM 4F-MDMB-BINACA in medium, larvae 4 dpf, larvae extract, one replicate of n = 3, n.d. = not detected
CYP2C19 = biological target: T7, CYP2C19 (Homo sapiens, UniProt P33261); assay: Monooxygenases activity screening, CYP2C19; format: in vitro ADME; set-up: key: +, detected; –: −, not detected; details: 25 μM 4F-MDMB-BINACA, 50 pmol/ml enzyme, 30 min, 37°C, duplicate
T7 construct: purchased Corning; host or cells: baculovirus-transfected insect cell microsomes (Supersomes)
T7 sequence (P33261 whole entry): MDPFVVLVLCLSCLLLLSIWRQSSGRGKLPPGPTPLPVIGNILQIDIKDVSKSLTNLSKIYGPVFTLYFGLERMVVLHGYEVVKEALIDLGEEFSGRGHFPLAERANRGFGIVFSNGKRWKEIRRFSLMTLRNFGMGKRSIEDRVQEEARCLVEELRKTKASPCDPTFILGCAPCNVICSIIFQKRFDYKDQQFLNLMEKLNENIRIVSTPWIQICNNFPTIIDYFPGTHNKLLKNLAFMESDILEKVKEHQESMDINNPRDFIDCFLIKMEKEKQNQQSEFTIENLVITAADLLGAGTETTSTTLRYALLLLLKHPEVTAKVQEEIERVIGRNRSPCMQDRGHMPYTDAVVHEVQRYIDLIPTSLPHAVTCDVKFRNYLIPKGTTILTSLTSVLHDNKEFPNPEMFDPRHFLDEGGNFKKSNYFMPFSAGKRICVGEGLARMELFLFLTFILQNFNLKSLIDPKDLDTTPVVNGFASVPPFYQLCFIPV
Description: as §1

FMO3 = biological target: T8, FMO3 (Homo sapiens, UniProt P31513); assay: Monooxygenases activity screening, FMO3; format: in vitro ADME; set-up: key: +, detected; –: −, not detected; details: 25 μM 4F-MDMB-BINACA, 0.25 mg protein/ml, 30 min, 37°C, duplicate
T8 construct: purchased Corning; host or cells: baculovirus-transfected insect cell microsomes (Supersomes)
T8 sequence (P31513 1-532): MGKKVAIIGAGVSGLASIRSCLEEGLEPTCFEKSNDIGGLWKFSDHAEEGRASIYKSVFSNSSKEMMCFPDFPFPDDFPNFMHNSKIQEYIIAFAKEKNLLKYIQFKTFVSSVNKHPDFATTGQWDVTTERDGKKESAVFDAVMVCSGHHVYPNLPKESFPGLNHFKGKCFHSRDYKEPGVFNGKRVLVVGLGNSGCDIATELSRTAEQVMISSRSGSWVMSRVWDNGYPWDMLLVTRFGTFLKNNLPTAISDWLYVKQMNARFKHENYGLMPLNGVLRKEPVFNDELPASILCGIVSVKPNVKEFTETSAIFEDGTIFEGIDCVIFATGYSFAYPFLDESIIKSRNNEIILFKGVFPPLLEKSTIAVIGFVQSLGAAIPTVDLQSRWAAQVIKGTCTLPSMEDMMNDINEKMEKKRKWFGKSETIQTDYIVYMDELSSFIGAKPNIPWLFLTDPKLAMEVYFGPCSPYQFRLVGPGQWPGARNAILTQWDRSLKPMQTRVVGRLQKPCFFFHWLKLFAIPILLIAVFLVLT
Description: as §1

[1] = plasma, human data for ephylone and 4F-PHP from Wagmann et al., [2019b]
[2] = urine, human data for ephylone and 4F-PHP from Wagmann et al., [2019b]

T1 sequence (P20815 whole entry): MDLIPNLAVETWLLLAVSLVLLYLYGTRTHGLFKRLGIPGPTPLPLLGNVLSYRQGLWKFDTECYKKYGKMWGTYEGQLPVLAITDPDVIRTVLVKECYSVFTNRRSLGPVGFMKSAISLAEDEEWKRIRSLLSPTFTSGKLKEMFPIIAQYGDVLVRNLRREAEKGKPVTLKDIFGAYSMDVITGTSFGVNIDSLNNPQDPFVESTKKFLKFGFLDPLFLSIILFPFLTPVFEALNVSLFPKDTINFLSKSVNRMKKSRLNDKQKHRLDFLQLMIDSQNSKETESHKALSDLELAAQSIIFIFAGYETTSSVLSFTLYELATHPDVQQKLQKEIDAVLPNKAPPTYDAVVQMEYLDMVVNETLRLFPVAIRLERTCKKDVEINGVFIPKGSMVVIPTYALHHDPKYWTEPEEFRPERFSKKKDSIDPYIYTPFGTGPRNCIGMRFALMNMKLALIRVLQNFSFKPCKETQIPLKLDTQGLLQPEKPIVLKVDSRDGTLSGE

Structure (SMILES) | Detection of metabolite in incubation with CYP3A5 (CYP3A5) | Absolute peak area, HepaRG [25 μM] (HepaRG cells; 24 h) | Absolute peak area, HepaRG [250 μM] (HepaRG cells; 24 h) | Detection of metabolite in incubation with CYP2A6 (CYP2A6) | Detection of metabolite in incubation with CYP2B6 (CYP2B6) | Detection of metabolite in incubation with CYP2D6 (CYP2D6) | Detection of metabolite in incubation with CYP2E1 (CYP2E1) | Detection of metabolite in incubation with CYP2C9 (CYP2C9) | Absolute peak area, Zebrafish larvae [25 μM] (zebrafish larvae; 24 h) | Detection of metabolite in incubation with CYP2C19 (CYP2C19) | Detection of metabolite in incubation with FMO3 (FMO3) | further results
CC(C)(C)C(NC(=O)c1nn(CCCCF)c2ccccc12)C(=O)O (stereo not drawn) [MB8] | – | 5.16E+07 | 1.63E+09 | – | – | – | – | – | 1.73E+07 | – | – | 
O=C(O)c1nn(CCCCF)c2ccccc12 [MB1] | – | 3.34E+04 | 3.82E+06 | – | – | – | – | – |  | – | – | 
COC(=O)[C@@H](NC(=O)c1nn(CCCCF)c2ccccc12)C(C)(C)CO [MB16] | + |  |  | – | – | – | – | – | 5.98E+06 | – | – | 
COC(=O)C(NC(=O)c1nn(CCCCF)c2ccccc12)C(C)(C)C (stereo not drawn) [4F-MDMB-BINACA, methyl 2-[1-(4-fluorobutyl)-1H-indazole-3-carbonyl]amino-3,3-dimethylbutanoate] |  | 1.28E+08 | 5.18E+08 |  |  |  |  |  | 2.89E+09 |  |  | Number of phase I metabolites detected, HepaRG [25 μM] (HepaRG cells; 25 μM, 24 h): 7; Number of phase II metabolites detected, HepaRG [25 μM] (HepaRG cells; 25 μM, 24 h): 2; Number of phase I metabolites detected, HepaRG [250 μM] (HepaRG cells; 250 μM, 24 h): 12; Number of phase II metabolites detected, HepaRG [250 μM] (HepaRG cells; 250 μM, 24 h): 3; Relative number of matches with the four most abundant signals in human plasma, HepaRG [25 μM] (HepaRG cells; [1]): 50%; Relative number of matches with the four most abundant signals in human plasma, HepaRG [250 μM] (HepaRG cells; [1]): 75%; Relative number of matches with the four most abundant signals in human urine, HepaRG [25 μM] (HepaRG cells; [2]): 50%; Relative number of matches with the four most abundant signals in human urine, HepaRG [250 μM] (HepaRG cells; [2]): 100%; Number of phase I metabolites detected, Zebrafish larvae (zebrafish larvae; 25 μM in medium, 24 h): 14; Number of phase II metabolites detected, Zebrafish larvae (zebrafish larvae; 25 μM in medium, 24 h): 4; Relative number of matches with the four most abundant signals in human plasma, Zebrafish larvae (zebrafish larvae; plasma, larvae exposed to 25 μM): 100%; Relative number of matches with the four most abundant signals in human urine, Zebrafish larvae (zebrafish larvae; urine, larvae exposed to 25 μM): 75%
COC(=O)[C@@H](NC(=O)c1n[nH]c2ccccc12)C(C)(C)C [MB4] | + |  | 9.55E+06 | – | – | – | – | – | 7.45E+06 | + | – | 
COC(=O)[C@@H](NC(=O)c1nn(CCCCO)c2ccccc12)C(C)(C)C [MB11] | + | 9.30E+04 | 6.93E+06 | – | – | – | – | – | 2.92E+06 | – | – | 
